Assay results reported in paper PMC9230645, “Discovery of GSK3β Inhibitors through In Silico Prediction-and-Experiment Cycling Strategy, and Biological Evaluation” (Molecules, 2022).

Legend:
[1] = target: T1, GSK3β (Homo sapiens, UniProt P49841); assay: GSK3β kinase assay (TR-FRET / Lance HTRF); format: biochemical; conditions: for inhibition at 0.5 µM: 0.5 μM compound; for inhibition at 5 µM: 5 μM compound; for IC50: Table 1, means ± SD (n = 2)
T1 construct: purchased Carna Biosciences
Experimental: The GSK3β inhibitory activities of the virtually-selected 3000 compounds were screened by a Lance HTRF assay. At a concentration of 10 μM, the single-point screening signal-to-noise (S/N) ratio, Z factor, and Z’ factor of the assay was 7.3, 0.48 and 0.61, respectively.

[2] = target: T1, GSK3β; assay: Five-by-five-concentration kinetic analysis of GSK3β inhibition versus ATP (Lineweaver–Burk); format: biochemical
[3] = test system: Wnt/β-catenin signaling; assay: HEK293 TOP flash reporter assay; format: cell-based; conditions: 5 µM, HEK293 TOP flash reporter cells, 18 h
Experimental: The pharmacologic inhibition of GSK3β’s activity can lead to β-catenin stabilization and subsequently activate Wnt/β-catenin signaling. To measure the inhibitory activities of the compounds selected in GSK3β enzyme-based high-throughput screening, these were treated in HEK293 TOP flash reporter cells at various concentrations.
The HEK293 reporter cells (HEK293 cells containing the chromosomally incorporated TOPflash gene) were provided by KY Choi (Yonsei University, Seoul, Korea). The HEK293 reporter cells were cultured in DMEM (Gibco) supplemented with 10% FBS (Gibco). To test the activates of GSK3β inhibition for hit compounds, HEK293 reporter cells were seeded into 96-well black polystyrene plates (Greiner Bio-One, Kremsmünster, Austria) at 1.5 × 10^4 cells per well and cultured for 24 h. Hit compounds, a positive control (CHIR99021, SelleckChem, Houston, TX, USA) or control (DMSO) were added to the wells at the indicated concentrations. After 18 h, the plates were assayed for firefly luciferase activity; relative reporter activity was determined after the data were normalized relative to the value of the WST-1 (Takara Korea Biomedical Inc., Seoul, Korea) cell viability analysis. Statistical analyses were performed using Prism 8 (GraphPad Software). […]

[4] = target: T1, GSK3β; assay: Reversibility assay (dilution method); format: biochemical; conditions: pre-incubated with 1 µM for 30 min, then diluted
Experimental: Figure 3 In vitro assay. […] (b) Competitive inhibition by cpd1 and SB216873. Compounds were tested using 4-point 2-fold serial dilution, starting from 1 µM or 0.25 µM at 5 different concentration of ATP (200, 100, 50, 33.3, and 25 µM). (c) Reversibility test.
The in vitro enzyme TR-FRET (time-resolved fluorescence energy transfer) assays were performed in 384-well white plates (Greiner) at room temperature (25 °C) using an HTS system from Biomek FX (Beckman Coulter) and a Stella robot. The assay was performed in a final volume of 10 µL in a kinase buffer of 50 mM HEPES, pH 7.5, 1 mM EGTA, 10 mM MgCl2, 2 mM DTT, and 0.01% Tween-20. The 3000 virtually-selected compounds in the 5 mM DMSO stock were diluted into desired concentrations with kinase buffer. A total of 5 µL of GSK3β (Carna Biosciences, 0.5 ng/well) and 2.5 µL of compounds were added to the assay plates and, then, 2.5 µL of the ULight-GS Peptide (Ser641/pSer657, […](pS)ED, #TRF0131 PerkinElmer, 50 nM final concentration)/ATP mixture were added. […] After incubation for 1 h, the fluorescence signal was read in excitation at 320 nm with an emission at 665 nm with the Envision Multilabel Plate Reader (PerkinElmer). Experimental data from dose–response curves were analyzed by nonlinear regression analysis with GraphPad Prism, version 7.00 for Windows, and the IC50 values were obtained. […]

T1 sequence (P49841 whole entry): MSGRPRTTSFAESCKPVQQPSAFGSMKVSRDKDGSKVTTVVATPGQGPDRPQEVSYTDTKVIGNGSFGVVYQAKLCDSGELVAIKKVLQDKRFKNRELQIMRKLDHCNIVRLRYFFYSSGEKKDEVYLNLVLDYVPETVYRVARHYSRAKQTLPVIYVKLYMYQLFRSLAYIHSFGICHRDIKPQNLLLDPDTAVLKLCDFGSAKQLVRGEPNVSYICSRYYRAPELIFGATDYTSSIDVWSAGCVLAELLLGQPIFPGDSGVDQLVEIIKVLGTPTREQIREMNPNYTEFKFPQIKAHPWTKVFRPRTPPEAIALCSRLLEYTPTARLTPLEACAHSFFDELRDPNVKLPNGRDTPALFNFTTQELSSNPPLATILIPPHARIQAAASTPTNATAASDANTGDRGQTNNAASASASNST

SMILES | inhibition at 0.5 µM [1] | inhibition at 5 µM [1] | IC50 [1] | Ki ([2]; 5 ATP concentrations (200, 100, 50, 33.3, 25 µM), read-out: slope inhibition constant K is) | inhibition pattern of GSK3β-catalyzed phosphorylation ([2]; versus ATP) | enzyme-binding reversibility [4] | TOP flash activity induction [3]
Cc1c(CNc2cc(-c3ccccc3F)nc3ccnn23)cnn1C [Compound 4] | 57% | 96% | 347 ± 56 nM | – | – | – | –
Cc1cc(NCCCNc2cccnc2)n2nccc2n1 [Compound 7] | 30% | 90% | 1030 ± 66 nM | – | – | – | –
COCc1cc(NCc2nnn[nH]2)n2nccc2n1 [Compound 5] | 38% | 95% | 701 ± 118 nM | – | – | – | –

The next lines start with results.

inhibition at 0.5 µM [1] | inhibition at 5 µM [1] | IC50 [1] | Ki ([2]; 5 ATP concentrations (200, 100, 50, 33.3, 25 µM), read-out: slope inhibition constant K is) | inhibition pattern of GSK3β-catalyzed phosphorylation ([2]; versus ATP) | enzyme-binding reversibility [4] | SMILES | TOP flash activity induction [3]
100% | 100% | 37 ± 6 nM | 41.8 nM | competitive | reversible | CCc1nccn1CCCNc1cc(-c2ccc(F)cc2)nc2ccnn12 [Compound 1, N-(3-(2-ethyl-1H-imidazol-1-yl)propyl)-5-(4-fluorophenyl)pyrazolo[1,5-a]pyrimidin-7-amine] | 3.5 fold
61% | 100% | – | – | – | – | Cn1cc(C2=C(c3ccc(Cl)cc3Cl)C(=O)NC2=O)c2ccccc21 [8 (SB216763), SB216763, reference compound] | –
45% | 91% | 730 ± 113 nM | – | – | – | CCc1cc(NCc2scnc2-c2ccccc2)n2nccc2n1 [Compound 6] | –
78% | 100% | 211 ± 55 nM | – | – | – | Cc1nc[nH]c1CSCCNc1cc(-c2ccccc2)nc2ccnn12 [Compound 2] | –
